Entries after “also recorded” stand apart in the source; their conditions may differ.
Tested on: NOD/SCID/MPSVII mice
Assay: huMSC transplantation with LLP2A-Ale in immunodeficient mice
Format: in vivo, mouse
From the text: Human MSCs (huMSCs) were obtained and injected together with LLP2A-Ale to immunodeficient mice, NOD/SCID/mucopolysaccharidosis type VII (MPSVII). This mouse strain lacked the β-glucuronidase (GUSB) enzyme. The donor cells could be easily detected using biochemical detection of β-glucuronidase (See Meyerrose, T. E., et al., Stem Cells, 2007. 25(1): p. 220-7; Meyerrose, T. E., et al., Stem Cells, 2008. 26(7): p. 1713-22). At three-month of age, the mice received a single intravenous (i.v.) injection of either vehicle (100 μl PBS/mouse), huMSCs (5×10^5/100 μl/PBS/mouse), huMSCs+LLP2A (5 nM/mouse) or huMSCs+LLP2A-Ale (500 ng/mouse; total compound weight 3.5 μg, with alendronate concentration of 500 ng/mouse). The alendronate dose we used for the study was approximately one-fifth of the therapeutic dose for the treatment of osteoporosis (See Colon-Emeric, C. S., JAMA, 2006, 296(24): p. 2968-9; Ma, Y. L., et al., Endocrinology, 2003. 144(5): p. 2008-15). […] HuMSC, as shown by GUSB+red stain, were only present at the trabecular bone surface in the LLP2A-Ale-treated group (lower panel). There was no demonstrable GUSB activity in the lung, liver, kidney and LVB that received PBS (top panels) or huMSCs (middle panel). Cancellous bone mass in the vertebral body was—more than 40% higher in the group treated with MSC+LLP2A-Ale (cancellous bone volume, BV/TV 13.9±2.2%) compared to PBS (BV/TV 9.4±1.7%), MSC (BV/TV 10.2±1.9%) or MSC+LLP2A (BV/TV 10.5±0.5%) controls three weeks after a single injection of huMSC and LLP2A-Ale.
In FIG. 8, Three-month-old MSPVII mice received a single intravenous injection of either of PBS, huMSC (5×10^5) or huMSC+LLP2A or LLP2A-Ale. The mice were sacrificed 24 hours later. Following sacrifice, small portions of organ including lumbar vertebral bodies (LVB) were harvested and frozen in Optimal Cutting Temperature embedding media. The sections were stained using naphthol-AS-BI-β-Dglucuronide (GUSB) as a substrate. Representative sections from lung, liver, kidney and lumbar vertebral (LVB) trabecular bone regions were presented. […] Isolated GUSB-positive cells were also observed within bone marrow of the LVB in […] group.
The NOD-SCID MPSVII strain was the result of extensive backcrossing of the mutant GUSB allele from the B6.C-H-2^bm1/ByBirgus^mps/+ mouse onto the NOD/LtSz-scid background. Animals were bred and maintained at the Stem Cell Department of the UC Davis Medical Center under approved animal care protocols. Affected animals were generated by breeding mice heterozygous for the MPSVII mutation. Homozygous GUSB-deficient pups were identified at birth by biochemical analysis of toe tissue.
Serum levels of the amino terminal propeptide of type 1 procollagen (P1NP), osteocalcin and C-terminal telopeptides of type I collagen (CTX-I) were measured using mouse sandwich ELISA kits from Biomedical Technologies (Stroughton, Mass.) or Immunodiagnostic System (Fountain Hills, Ariz.). The manufacturer's protocols were followed and all samples were assayed in duplicate. A standard curve was generated from each kit and the absolute concentrations were extrapolated from the standard curve. The coefficients of variations (CVs) for inter-assay and intra-assay measurements were less than 10% for all assays and are similar to the manufacturer's references (Yao, W., et al., Arthritis Rheum, 2008, 58(6): p. 1674-86; Yao, W., et al., Arthritis Rheum, 2008, 58(11): p. 3485-3497).
After fixation in 4% paraformaldehyde, the right distal femurs, mid-femurs and the 5th lumbar vertebral bodies were dehydrated in graded concentrations of ethanol and xylene and embedded un-decalcified in methyl methacrylate. The frontal sections (8 μm thick) were cut using a vertical bed microtome (Leica/Jung 2265) and affixed to slides coated with a 2% gelatin solution. Unstained 8-μm-thick sections were used for assessing fluorochrome labeling and dynamic changes in bone. […]

[1] = 5th lumbar vertebral body, three weeks, co-injected with huMSC
[2] = serum, three weeks, co-injected with huMSC
[3] = three weeks following huMSCs transplantation

Cc1ccccc1NC(=O)Nc1ccc(CC(=O)N[C@@H](CCCCNC(=O)/C=C/c2cccnc2)C(=O)N[C@@H](CCCC(=O)O)C(=O)NC2(C(=O)NCCOCCOCCNC(=O)CCC(=O)NCCOCCOCCNC(=O)CCC(=O)N[C@@H](CCCCNC(=O)[C@H](N)CSC3CC(=O)N(CC4CCC(C(=O)NCCCC(O)(P(=O)(O)O)P(=O)(O)O)CC4)C3=O)C(N)=O)CCCCC2)cc1 (some centres unmarked) [LLP2A-Ale, LLP2A-Alendronate]
osteoblasts and osteocytes at cortical and trabecular bone regions in LVB (3 weeks following co-injection with GFP-labeled huMSCs): increased | mineral apposition rate [1]: significant increases | osteoblast surface [1]: significant increases | surface-based bone formation rate (BFR/BS) [1]: significant increases | huMSCs (GUSB+) on/adjacent to bone surface (24 hours after single i.v. injection of huMSCs with compound): greatly increased; also recorded: Significant amount; also recorded: seen accumulated in bone marrow, adjacent to both trabecular and periosteal bone surfaces | intra-cortical bone remodeling (mid-femur, three weeks, co-injected with huMSC): markedly increased | osteocalcin [2]: significant increases | procollagen 1 N-terminal propeptide (P1NP) [2]: significant increases | cancellous bone mass in the vertebral body, higher compared to controls (three weeks after single injection of huMSC and compound, vs PBS, MSC, MSC+LLP2A): more than 40% | huMSCs (GUSB+) adjacent to/retained in bone (three weeks after transplantation, co-injected with huMSCs): only seen adjacent to the bone surface; also recorded: retention of the transplanted huMSCs in bone | cortical bone formation [3]: increases | trabecular bone formation [3]: increases | bone formation rates at endocortical and periosteal surfaces of the mid-femur, increase (three weeks, co-injected with huMSC): 50-100% | cancellous bone volume, BV/TV (vertebral body, three weeks after single injection of huMSC with or without compound): 13.9±2.2%
